Experimental data published in PubChem BioAssay (NCI).
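Five concentrations, 48 hours, 96-well plates. TGI marks complete inhibition of growth.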

Key:
Test in all cases: inhibition of tumour cell growth, NCI panel, 48 h
[1] = test system: KM12 colon
[2] = test system: NCI-H460 lung
[3] = test system: OVCAR-5 ovarian
[4] = test system: LOX IMVI melanoma
[5] = test system: ACHN renal
[6] = test system: IGROV1 ovarian
[7] = test system: SR leukemia
[8] = test system: MALME-3M melanoma
[9] = test system: CAKI-1 renal
[10] = test system: DMS 114 small cell lung
[11] = test system: A549 NSCLC
[12] = test system: HCT-116 colon
[13] = test system: OVCAR-8 ovarian
[14] = test system: DLD-1 colon
[15] = test system: HCT-15 colon
[16] = test system: SF-268 CNS
[17] = test system: M14 melanoma
[18] = test system: U251 CNS
[19] = test system: SN12C renal
[20] = test system: NCI-H226 lung
[21] = test system: A498 renal
[22] = test system: KM20L2 colon
[23] = test system: SNB-19 CNS
[24] = test system: SF-295 CNS
[25] = test system: HOP-62 NSCLC
[26] = test system: 786-0 renal
[27] = test system: SW-620 colon
[28] = test system: MOLT-4 leukemia
[29] = test system: OVCAR-3 ovarian
[30] = test system: M19-MEL melanoma
[31] = test system: HT29 colon
[32] = test system: TK-10 renal
[33] = test system: CCRF-CEM leukemia
[34] = test system: XF 498 CNS
[35] = test system: RXF 393 renal
[36] = test system: K-562 leukemia
[37] = test system: OVCAR-4 ovarian
[38] = test system: UO-31 renal
[39] = test system: SNB-75 CNS
[40] = test system: RPMI-8226 leukemia
[41] = test system: HOP-92 NSCLC
[42] = test system: EKVX NSCLC
[43] = test system: COLO 205 colon
[44] = test system: NCI-H23 lung
[45] = test system: LXFL 529 NSCLC
[46] = test system: SNB-78 CNS
[47] = test system: UACC-257 melanoma
[48] = test system: NCI-H522 lung
[49] = test system: UACC-62 melanoma
[50] = test system: HL-60(TB) leukemia
[51] = test system: SK-OV-3 ovarian
[52] = test system: HCC-2998 colon
[53] = test system: HOP-18 NSCLC

Measured: TGI

COC(=O)C(=O)C(C(=O)C(=O)Nc1ccc(OC)cc1[N+](=O)[O-])c1nc2ccc([N+](=O)[O-])cc2[nH]c1=O (stereo not drawn)
> 100 µM: [1] | [2] | [3] | [4] | [5] | [6] | [7] | [8] | [9] | [10] | [11] | [12] | [13] | [14] | [15] | [16] | [17] | [18] | [19] | [20] | [21] | [22] | [23] | [24] | [25] | [26] | [27] | [28] | [29] | [30] | [31] | [32] | [33] | [34] | [35] | [36] | [37] | [38] | [39] | [40] | [41] | [42] | [43] | [44] | [45] | [46] | [47] | [48] | [49] | [50] | [51] | [52] | [53]
